Data: paper PMC6494957 (Frontiers in Microbiology, 2019)
Where two headings read alike, the source gives them in different places.

Columns and labels:
HaCaT cell line = test: In vitro cytotoxicity, WST-1; format: cell-based; details: Homo sapiens, 10% FBS, read-out: IC50, single agent
Description: Cells were maintained in Dulbecco’s modified Eagle’s medium (DMEM) with 10% fetal bovine serum (FBS) and 1% PenStrep (100 U/mL Penicillin and 100 μg/mL Streptomycin) at 37°C with 5% CO2. Cells were serially passaged at ∼80% confluence ∼ every 4 days. Assays were performed in duplicate in 96 well plates seeded with ∼25,000 cells per well. […] Briefly, the antimicrobials were prepared by performing a twofold serial dilution at 100× of tested concentration in DMSO. Subsequently, a 1 μl aliquot of each concentration was transferred to a sterile 96-well plate containing fresh DMEM with either 10% FBS. After mixing four times, the media aliquots with different concentrations of antimicrobial were transferred to each well of the 96-well plate seeded with cells, using wells containing 1–2% DMSO only as control. To determine the effect of FBS on the cytotoxicity of each compound, DMEM with 40% FBS containing different concentrations of antimicrobial was prepared as described above. After 24 h of exposure, WST-1 reagent (Cell Proliferation Assay reagent, Roche) at a concentration of 10% was added to each well. Absorbance at A450 nm on a Multiskan Ascent 354 Spectrophotometer (Labsystems) was measured after 1 h of incubation. The IC50 value was determined for each compound against each cell line via non-linear regression (three parameters) using GraphPad Prism v6 software.

P. mirabilis ATCC 43071 = test: microbe, parasite or virus in culture; details: for MIC: Proteus mirabilis
Description: (§1) The MIC for ampicillin or gentamicin against each isolate was determined for each test to serve as an internal quality control. The MICs of isolates were determined by visual reading and using an EnSpire Multimode Plate Reader 2300 atA600nm.
(§2) Briefly, antimicrobial stock solutions for robenidine and PMBN were prepared at a concentration of 12.8 mg/ml in DMSO. […] A 1 μl aliquot of the first compound from each combination was dispensed along the abscissa (from row A to G) of the 96-well microplate, while the second compound was dispensed along the ordinate (from column 12 to column 3) using an electronic multichannel pipette followed by 89 μl of LB broth. Each well of the plate was inoculated with an aliquot of 10 μl bacterial suspension at a concentration of 1-5 × 10^6 colony forming units (CFU) per ml. Subsequently, the plate was incubated at 37°C for 24 h. The fractional inhibitory concentration index (FICI) described the results of the combinations, and was calculated utilizing the following formula:
(§3) DRI = MIC of drug alone/MIC of drug in combination

K. pneumoniae ATCC 13883 = test: microbe, parasite or virus in culture; details: for MIC: Klebsiella pneumoniae
Description: as §1, §2, §3

P. putida ATCC 17428 = test: microbe, parasite or virus in culture; details: for MIC: Pseudomonas putida
Description: as §1, §2, §3

A. baumannii ATCC 19606 = test: microbe, parasite or virus in culture; details: for MIC: Acinetobacter baumannii
Description: as §1, §2, §3

E. coli ATCC 25922 = test: microbe, parasite or virus in culture; details: for MIC: Escherichia coli
Description: as §1, §2, §3

[1] = system: A. calcoaceticus (human clinical isolate); test: microbe, parasite or virus in culture; details: for MIC: Acinetobacter calcoaceticus
Description: as §1, §2, §3

A. baumannii ATCC 12457 = test: microbe, parasite or virus in culture; details: for MIC: Acinetobacter baumannii
Description: as §1, §2, §3

E. coli ATCC 11229 = test: microbe, parasite or virus in culture; details: for MIC: Escherichia coli
Description: as §1, §2, §3

P. aeruginosa ATCC 27853 = test: microbe, parasite or virus in culture; details: for MIC: Pseudomonas aeruginosa
Description: as §1, §2, §3

Structure (SMILES): O=C(O)CN(CCN(CC(=O)O)CC(=O)O)CC(=O)O [EDTA, ethylenediaminetetraacetic acid]
- IC50 (HaCaT cell line): 3.8 mM
- DRI EDTA:ROB (P. mirabilis ATCC 43071; P. mirabilis ATCC 43071, DRI of the labelled component): 1
- MIC in combination EDTA:ROB (mM in parentheses) (P. mirabilis ATCC 43071; P. mirabilis ATCC 43071, EDTA component): 0.6 mM
- MIC in combination EDTA:ROB (P. mirabilis ATCC 43071; P. mirabilis ATCC 43071, concentration of the labelled component): 228 µg/mL
- MIC (P. mirabilis ATCC 43071; ATCC43071, read-out: MIC, single drug): 228 µg/mL
- MIC (P. mirabilis ATCC 43071; ATCC43071, read-out: MIC, single drug (mM in parentheses)): 0.6 mM
- DRI EDTA:ROB (K. pneumoniae ATCC 13883; K. pneumoniae ATCC 13883, DRI of the labelled component): 3
- MIC in combination EDTA:ROB (mM in parentheses) (K. pneumoniae ATCC 13883; K. pneumoniae ATCC 13883, EDTA component): 10 mM
- MIC in combination EDTA:ROB (K. pneumoniae ATCC 13883; K. pneumoniae ATCC 13883, concentration of the labelled component): 3800 µg/mL
- MIC (K. pneumoniae ATCC 13883; ATCC13883, read-out: MIC, single drug): 11400 µg/mL
- MIC (K. pneumoniae ATCC 13883; ATCC13883, read-out: MIC, single drug (mM in parentheses)): 30 mM
- DRI EDTA:ROB (P. putida ATCC 17428; P. putida ATCC 17428, DRI of the labelled component): 2
- MIC in combination EDTA:ROB (mM in parentheses) (P. putida ATCC 17428; P. putida ATCC 17428, EDTA component): 2.5 mM
- MIC in combination EDTA:ROB (P. putida ATCC 17428; P. putida ATCC 17428, concentration of the labelled component): 950 µg/mL
- MIC (P. putida ATCC 17428; ATCC17428, read-out: MIC, single drug): 1900 µg/mL
- MIC (P. putida ATCC 17428; ATCC17428, read-out: MIC, single drug (mM in parentheses)): 5 mM
- DRI EDTA:ROB (A. baumannii ATCC 19606; A. baumannii ATCC 19606, DRI of the labelled component): 2
- MIC in combination EDTA:ROB (mM in parentheses) (A. baumannii ATCC 19606; A. baumannii ATCC 19606, EDTA component): 0.5 mM
- MIC in combination EDTA:ROB (A. baumannii ATCC 19606; A. baumannii ATCC 19606, concentration of the labelled component): 190 µg/mL
- MIC (A. baumannii ATCC 19606; ATCC19606, read-out: MIC, single drug): 380 µg/mL
- MIC (A. baumannii ATCC 19606; ATCC19606, read-out: MIC, single drug (mM in parentheses)): 1 mM
- DRI EDTA:ROB (E. coli ATCC 25922; E. coli ATCC 25922, DRI of the labelled component): 4
- MIC in combination EDTA:ROB (mM in parentheses) (E. coli ATCC 25922; E. coli ATCC 25922, EDTA component): 2.5 mM
- MIC in combination EDTA:ROB (E. coli ATCC 25922; E. coli ATCC 25922, concentration of the labelled component): 950 µg/mL
- MIC (E. coli ATCC 25922; ATCC25922, read-out: MIC, single drug): 3800 µg/mL
- MIC (E. coli ATCC 25922; ATCC25922, read-out: MIC, single drug (mM in parentheses)): 10 mM
- DRI EDTA:ROB ([1]; A. calcoaceticus human clinical isolate, DRI of the labelled component): 1
- MIC in combination EDTA:ROB (mM in parentheses) ([1]; A. calcoaceticus human clinical isolate, EDTA component): 0.6 mM
- MIC in combination EDTA:ROB ([1]; A. calcoaceticus human clinical isolate, concentration of the labelled component): 228 µg/mL
- MIC ([1]; read-out: MIC, single drug): 228 µg/mL
- MIC ([1]; read-out: MIC, single drug (mM in parentheses)): 0.6 mM
- DRI EDTA:ROB (A. baumannii ATCC 12457; A. baumannii ATCC 12457, DRI of the labelled component): 2
- MIC in combination EDTA:ROB (mM in parentheses) (A. baumannii ATCC 12457; A. baumannii ATCC 12457, EDTA component): 0.25 mM
- MIC in combination EDTA:ROB (A. baumannii ATCC 12457; A. baumannii ATCC 12457, concentration of the labelled component): 95 µg/mL
- MIC (A. baumannii ATCC 12457; ATCC12457, read-out: MIC, single drug): 190 µg/mL
- MIC (A. baumannii ATCC 12457; ATCC12457, read-out: MIC, single drug (mM in parentheses)): 0.5 mM
- DRI EDTA:ROB (E. coli ATCC 11229; E. coli ATCC 11229, DRI of the labelled component): 4
- MIC in combination EDTA:ROB (mM in parentheses) (E. coli ATCC 11229; E. coli ATCC 11229, EDTA component): 0.6 mM
- MIC in combination EDTA:ROB (E. coli ATCC 11229; E. coli ATCC 11229, concentration of the labelled component): 228 µg/mL
- MIC (E. coli ATCC 11229; ATCC11229, read-out: MIC, single drug): 950 µg/mL
- MIC (E. coli ATCC 11229; ATCC11229, read-out: MIC, single drug (mM in parentheses)): 2.5 mM
- DRI EDTA:ROB (P. aeruginosa ATCC 27853; P. aeruginosa ATCC 27853, DRI of the labelled component): 2
- MIC in combination EDTA:ROB (mM in parentheses) (P. aeruginosa ATCC 27853; P. aeruginosa ATCC 27853, EDTA component): 5 mM
- MIC in combination EDTA:ROB (P. aeruginosa ATCC 27853; P. aeruginosa ATCC 27853, concentration of the labelled component): 1900 µg/mL
- MIC (P. aeruginosa ATCC 27853; ATCC27853, read-out: MIC, single drug): 3800 µg/mL
- MIC (P. aeruginosa ATCC 27853; ATCC27853, read-out: MIC, single drug (mM in parentheses)): 10 mM
